Experimental data: US20230235286A1, “MRNA TRANSFECTION OF IMMUNE CELLS” (Carisma Therapeutics Inc., priority 2020, published 2023)

Columns and labels:
human macrophages [1] = assay: M1/M2 marker expression on CAR macrophages by flow cytometry; type: cell-based; conditions: mRNA transfected CAR macrophages
Excerpt: IFN containing media was washed off after the indicated time. IFN-primed CAR macrophages were used for further analysis.
(§1) M1/M2 markers on primary human macrophages were detected with the following panel: Anti-CD11B PE (Biolegend, 301306), Anti-CD80 BV605 (Biolegend, 305225), Anti-CD86 BV711 (Biolegend, 305440), Anti CD206 BV421 (Biolegend, 321126), Anti CD163 APC-CY7 (Biolegend, 333622), anti HLA-DR BV785 (Biolegend, 307642), Anti HLA ABC PE/CY7 (Biolegend, 311430) and Live/Dead Fixable Aqua Dead Cell Stain Kit. Cytokine production (IL12, IFN-γ, TNF-α, IL6, IL8, IL1b, MCP-1, IL10, IL4, IL13, and other human cytokines) was evaluated in supernatant collected from macrophages (control or CAR) treated as described below using the MSD instrument per manufacturers recommendations (Meso Scale Discovery). In some cases, macrophages were co-cultured with antigen-bearing target cells at indicated effector to target ratios.
(§2) Human macrophages were electroporated with HER2 CAR mRNA comprising m6AGCap1 and PsU modifications. Cells were cultured with cytokines that induce an M1 phenotype such as IFN-alpha, IFN-beta, IFN-gamma, IFN-gamma plus lipopolysaccharide (LPS), TNF-alpha, IL-6 or a STING ligand (STING-L) for up to 48 hours and then cytokines were washed off and fresh media was added. CAR expression and M1 marker expression were measured on days 2 and 7 after transfection. Fluorescent labeled HER2+ breast cancer cells (CRL2351) were co-cultured with HER2 CAR macrophages two days after the macrophages were transfected. Cancer cell growth was monitored via its fluorescence on an Incucyte live imaging microscope every four hours. The Effector (CAR macrophage) to Target (cancer cell) ratio was 5:1.
Human macrophages were electroporated with 300 nM CAR mRNA comprising m6AGCap1 and PsU modifications. Cells were cultured with 20 ng/mL IFNs for 24 hours and then the cells were washed to remove cytokines. CAR expression was detected by Flow Cytometry (Attune) on day 2 after transfection. Cells were then co-cultured with a Nuc-Light labeled, HER2+ breast cancer cell line (CRL2351) at the Effector to Target ratio of 3:1. Cancer cell growth was monitored via its fluorescence on an Incucyte live imaging microscope. CAR expression and M1 markers in macrophages were detected by Flow Cytometry (Attune) on day 7 after transfection.

human macrophages [2] = assay: Cytokine secretion of CAR macrophages co-cultured with HER2+ breast cancer cells (MSD); type: cell-based; conditions: supernatant 48 hours after co-culture, E:T 3:1
Excerpt: as §1
Human macrophages were electroporated with 150 nM HER2 CAR mRNA comprising m6AGCap1 and PsU modifications. HER2+ breast cancer cells (CRL2351) were co-cultured with CAR macrophages after the macrophages were transfected with the CAR mRNA at an Effector (CAR macrophage) to Target (cancer cell) ratio of 3:1. Supernatant was collected 48 hours after the cancer cells and macrophages were co-cultured and cytokine levels were measured using a Meso Scale Discovery (MSD) instrument.

human macrophages [3] = assay: CAR expression on macrophages by flow cytometry; type: cell-based; conditions: two days after transfection, 20 ng/mL IFNs for 24 hours
human macrophages [4] = assay: mCherry expression in transfected macrophages with IFN-γ, sunitinib or ABCE1 (Incucyte); type: cell-based; conditions: cultured one day with different doses of IFN-γ
Procedure: The transfection efficiency, persistence of expression, and intensity of expression of the fluorescent reporter gene mCherry in human monocytes or macrophages was evaluated using real time live microscopy on the Incucyte (Sartorius) for the indicated period of time.
Macrophages were treated with 0-10 µM sunitinib (an RNAse-L inhibitor) for 2 hours prior to mRNA electroporation or transfection. The level of expression and persistence of expression of the encoded transgene was assessed using methods described above.
Human macrophages were transfected with mCherry mRNA comprising m6AGCap1 and PsU or N1mPsU modifications and were then cultured for one day with different doses of IFN-γ. mCherry expression was monitored on an Incucyte live imaging microscope.
In order to determine whether an RNaseL inhibitor could rescue IFN-γ-induced instability of transfected mRNA, human macrophages were treated with 1 µM sunitinib (an RNaseL inhibitor) two hours prior to the transfection of mCherry mRNA comprising m6AGCap1 and PsU modifications. Transfected cells were then cultured for one day with different dosages of IFN-γ. mCherry expression was monitored on an Incucyte live imaging microscope.
The effect of another RNaseL inhibitor (RLI or ABCE1) was also tested to further validate the concept. […]

[5] = system: CRL-2351 cells expressing nuclear GFP; assay: Tumor killing by macrophages and CAR macrophages primed on plates coated with CD40L, 4-1BB or 4-1BBL; type: cell-based, human; conditions: plate-coated protein
Procedure: (§3) To generate Her2-Zeta CAR expressing macrophages, primary human macrophages were suspended in EP buffer (MaxCyte) containing 300 nM mRNA (TriLink) at a concentration of 90×10^6 cells/mL. 100 µL of cell mixture was added to an electroporation cassette (OC 100x2; MaxCyte) and electroporated using the Experimental T cell 1 setting. Cells were removed from the cassette, plated in 3 mL of TexMACS media (Miltenyi Biotech) containing 20% FBS (Gibco) on UpCell plates (Thermo Scientific), and incubated overnight at 37° C. and 5% CO2.
(§4) Recombinant CD40 ligand (Peprotech), 4-1BB ligand (Enzo Life Sciences), and 4-1BB receptor (Peprotech) were re-suspended in molecular grade water to a stock concentration of 100 µg/mL. Stock solution was then used to create working solutions in PBS ranging from 2 -0.002 µg/mL. 100 µL of working solution was added to wells in a 96-well plate and left at room temperature for 4 hours.
Plates were removed from the incubator and left at room temperature for 30 minutes. Cells were detached from plate, counted using the NC-200 automated cell counter (Chemomtech), and re-suspended in TexMACS media with 10% FBS. […] Cell lysis was detected using the Incucyte (Essen Bioscience). Tumor cell death was calculated by integrated GFP intensity per well relative to time 0.

[6] = system: primary human macrophages; assay: M1 and M2 marker expression after priming with CD40L, 4-1BB or 4-1BBL; type: cell-based; conditions: macrophages transfected with CAR mRNA, 3 days
Procedure: as §3, §4
For detection of cell surface proteins, macrophages were plated onto wells coated with agonist molecules in a final volume of 200 µL TexMACS media + 10% FBS + 10 ng/mL GM-CSF and incubated for 3 days at 37° C. and 5% CO2. Cells were incubated in 300 µL Accutase (Sigma) for 30 min and transferred to 96-well round bottom plate for staining. Cells were incubated in FACS buffer containing 20 µg/mL Her2-His for 20 min at RT, followed by incubation in Human TruStain FcX for 10 min at RT. […]

human macrophages [7] = assay: Viability of macrophages electroporated or transfected with CAR mRNA (FACS); type: cell-based; conditions: two days after transfection, 20 ng/mL IFNs for 24 hours
Procedure: as §2, with “The Effector (CAR macrophage) to Target (cancer cell) ratio was 5:1.” left out
Five different mRNA modifications were also tested to determine if interferon treatment differentially affected macrophages transfected with mRNA comprising different modifications. […] CAR expression and M1 markers were detected by Flow Cytometry (Attune) on day four after electroporation. […] Cancer cell growth was monitored via its fluorescence on an Incucyte live imaging microscope every four hours.
Human macrophages were electroporated with 300 nM CAR mRNA comprising m6AGCap1 and PsU modifications. […] CAR expression was detected by Flow Cytometry (Attune) on day 2 after transfection. […] Cancer cell growth was monitored via its fluorescence on an Incucyte live imaging microscope. […]

Molecule | M1 phenotype based on CD86 expression (human macrophages [1]) | M2 markers based on CD163 expression (human macrophages [1]) | cytokine secretion (human macrophages [2]) | also measured
IFN-α | induction of an M1 phenotype | reduction of M2 markers | increased secretion of the cytokines IL-6, IL-8 and TNFα | 
IFN-γ: recombinant human IFN-γ (peprotech) | induction of an M1 phenotype | reduction of M2 markers | increased secretion of the cytokines IL-6, IL-8 and TNFα | CAR expression (human macrophages [3]): very high except in macrophages that had been treated with IFN-γ; mCherry mRNA expression (human macrophages [4]): reduced mCherry mRNA expression
CD40L: Recombinant CD40 ligand (Peprotech) (protein, UniProt P29965 113-261, looked up) CD40 ligand, soluble form: MQKGDQNPQIAAHVISEASSKTTSVLQWAEKGYYTMSNNLVTLENGKQLTVKRQGLYYIYAQVTFCSNREASSQAPFIASLCLKSPGRFERILLRAANTHSSAKPCGQQSIHLGGVFELQPGASVFVNVTDPSQVSHGTGFTSFGLLKL |  |  |  | tumor killing ability of macrophages and CAR macrophages [5]: significantly improved the tumor killing ability; M1 phenotype (M1 and M2 markers) [6]: induced an M1 phenotype
IFN-γ: recombinant human IFN-γ (peprotech) (protein, UniProt P01579 24-161, looked up) Interferon gamma: QDPYVKEAENLKKYFNAGHSDVADNGTLFLGILKNWKEESDRKIMQSQIVSFYFKLFKNFKDDQSIQKSVETIKEDMNVKFFNSNKKKRDDFEKLTNYSVTDLNVQRKAIHELIQVMAELSPAAKTGKRKRSQMLFRG |  |  |  | CAR macrophage viability (human macrophages [7]): very high except in macrophages that had been treated with IFN-γ
